Experimental data published in patent publication US20140274688A1, “MOLECULES HAVING CERTAIN PESTICIDAL UTILITIES, AND INTERMEDIATES, COMPOSITIONS, AND PROCESSES RELATED THERETO” (DOW AGROSCIENCES LLC, priority 2013, published 2014).
Like-named read-outs stand apart in the source and are kept apart here.

Legend:
[1] = tested on: Beet Armyworm (Spodoptera exigua) ("BAW"); test: Bioassay on Beet Armyworm (BAW), 128-well diet tray assay, percent mortality; assay type: in vivo; conditions: for BAW rating (percent mortality class): Beet Armyworm, 128-well diet tray assay; for pest or weed control at 50 µg/cm2: Spodoptera exigua, read-out: BAW
Outline: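 Larvae in covered diet trays held at 25 °C, 14:10 light-dark, for five to seven days. Percent mortality scored per well and averaged over eight wells per treatment.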

[2] = tested on: Cabbage Looper (Trichoplusia ni) ("CL"); test: Bioassay on Cabbage Looper (CL), 128-well diet tray assay, percent mortality; assay type: in vivo; conditions: for CL rating (percent mortality class): Cabbage Looper, 128-well diet tray assay; for pest or weed control at 50 µg/cm2: Trichoplusia ni, read-out: CL
Outline: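 Larvae held in covered diet trays at 25 °C, 14:10 light-dark, for five to seven days. Percent mortality scored per well and averaged over eight wells.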

[3] = tested on: Yellow Fever Mosquito "YFM" (Aedes aegypti); conditions: for YFM rating (mortality class): Yellow Fever Mosquito larvae, 96-well plates; for YFM: rating of mortality, Yellow Fever Mosquito

Cc1ccc(C(C)C)c(N2C(=O)CS/C2=N\C(=O)NCCc2ccc(-c3ncn(-c4ccc(OC(F)(F)C(F)(F)F)cc4)n3)cc2)c1 [F9, (Z)-1-(3-(2-isopropyl-5-methylphenyl)-4-oxothiazolidin-2-ylidene)-3-(4-(1-(4-(perfluoroethoxy)phenyl)-1H-1,2,4-triazol-3-yl)phenethyl)urea]
BAW rating (percent mortality class) [1]: A (50-100) | CL rating (percent mortality class) [2]: A (50-100) | YFM rating (mortality class) [3]: A (80-100)

CC(C)c1ccccc1NC(=S)NC(=O)NCc1ccc(-c2ncn(-c3ccc(OC(F)(F)F)cc3)n2)cc1 [F14, N-[2-(propan-2-yl)phenyl]-N′-(4-{1-[4-(trifluoromethoxy)phenyl]-1H-1,2,4-triazol-3-yl}benzyl)dicarbonimidothioic diamide]
BAW rating (percent mortality class) [1]: A (50-100) | CL rating (percent mortality class) [2]: A (50-100) | YFM rating (mortality class) [3]: A (80-100)

CCCc1ccc(C)cc1N1C(=O)CS/C1=N\C(=O)NCCCc1cccc(-c2ncn(-c3ccc(OC(F)(F)F)cc3)n2)c1 [P125, (Z)-1-(3-(5-methyl-2-propylphenyl)-4-oxothiazolidin-2-ylidene)-3-(3-(3-(1-(4-(trifluoromethoxy)phenyl)-1H-1,2,4-triazol-3-yl)phenyl)propyl)urea]
pest or weed control at 50 µg/cm2 [1]: 50 to 100% | pest or weed control at 50 µg/cm2 [2]: 50 to 100%

CCc1cccc(C)c1N1C(=O)CS/C1=N\C(=O)NCCCc1cccc(-c2ncn(-c3ccc(OC(F)(F)F)cc3)n2)c1 [P127, (Z)-1-(3-(2-ethyl-6-methylphenyl)-4-oxothiazolidin-2-ylidene)-3-(3-(3-(1-(4-(trifluoromethoxy)phenyl)-1H-1,2,4-triazol-3-yl)phenyl)propyl)urea]
pest or weed control at 50 µg/cm2 [1]: 50 to 100% | pest or weed control at 50 µg/cm2 [2]: 50 to 100%

Cc1ccc(N2C(=O)CS/C2=N\C(=O)NCCCc2cccc(-c3ncn(-c4ccc(OC(F)(F)F)cc4)n3)c2)c(C(C)C)c1 [P128, (Z)-1-(3-(2-isopropyl-4-methylphenyl)-4-oxothiazolidin-2-ylidene)-3-(3-(3-(1-(4-(trifluoromethoxy)phenyl)-1H-1,2,4-triazol-3-yl)phenyl)propyl)urea]
pest or weed control at 50 µg/cm2 [1]: 50 to 100% | pest or weed control at 50 µg/cm2 [2]: 50 to 100%

CC(C)c1cc(F)ccc1N1C(=O)CS/C1=N\C(=O)NCCCc1cccc(-c2ncn(-c3ccc(OC(F)(F)F)cc3)n2)c1 [P129, (Z)-1-(3-(4-fluoro-2-isopropylphenyl)-4-oxothiazolidin-2-ylidene)-3-(3-(3-(1-(4-(trifluoromethoxy)phenyl)-1H-1,2,4-triazol-3-yl)phenyl)propyl)urea]
pest or weed control at 50 µg/cm2 [1]: 50 to 100% | pest or weed control at 50 µg/cm2 [2]: 50 to 100%

COc1ccc(N2C(=O)CS/C2=N\C(=O)NCCCc2cccc(-c3ncn(-c4ccc(OC(F)(F)F)cc4)n3)c2)c(C)c1 [P131, (Z)-1-(3-(4-methoxy-2-methylphenyl)-4-oxothiazolidin-2-ylidene)-3-(3-(3-(1-(4-(trifluoromethoxy)phenyl)-1H-1,2,4-triazol-3-yl)phenyl)propyl)urea]
pest or weed control at 50 µg/cm2 [1]: 50 to 100% | pest or weed control at 50 µg/cm2 [2]: 50 to 100%

CCc1ccccc1N1C(=O)CS/C1=N\C(=O)NCCCCc1ccc(-c2ncn(-c3ccc(OC(F)(F)F)cc3)n2)cc1 [P145, (Z)-1-(3-(2-ethylphenyl)-4-oxothiazolidin-2-ylidene)-3-(4-(4-(1-(4-(trifluoromethoxy)phenyl)-1H-1,2,4-triazol-3-yl)phenyl)butyl)urea]
pest or weed control at 50 µg/cm2 [1]: 50 to 100% | pest or weed control at 50 µg/cm2 [2]: 50 to 100%

CC(C)c1ccccc1N1C(=O)CS/C1=N\C(=O)NCCCCc1ccc(-c2ncn(-c3ccc(OC(F)(F)F)cc3)n2)cc1 [P146, (Z)-1-(3-(2-isopropylphenyl)-4-oxothiazolidin-2-ylidene)-3-(4-(4-(1-(4-(trifluoromethoxy)phenyl)-1H-1,2,4-triazol-3-yl)phenyl)butyl)urea]
pest or weed control at 50 µg/cm2 [1]: 50 to 100% | pest or weed control at 50 µg/cm2 [2]: 50 to 100%

Cc1ccc(C(C)C)c(N2C(=O)CS/C2=N\C(=O)NCCCCc2ccc(-c3ncn(-c4ccc(OC(F)(F)F)cc4)n3)cc2)c1 [P150, (Z)-1-(3-(2-isopropyl-5-methylphenyl)-4-oxothiazolidin-2-ylidene)-3-(4-(4-(1-(4-(trifluoromethoxy)phenyl)-1H-1,2,4-triazol-3-yl)phenyl)butyl)urea]
pest or weed control at 50 µg/cm2 [1]: 50 to 100% | pest or weed control at 50 µg/cm2 [2]: 50 to 100%

CCCc1ccc(C)cc1N1C(=O)CS/C1=N\C(=O)NCCCCc1ccc(-c2ncn(-c3ccc(OC(F)(F)F)cc3)n2)cc1 [P151, (Z)-1-(3-(5-methyl-2-propylphenyl)-4-oxothiazolidin-2-ylidene)-3-(4-(4-(1-(4-(trifluoromethoxy)phenyl)-1H-1,2,4-triazol-3-yl)phenyl)butyl)urea]
pest or weed control at 50 µg/cm2 [1]: 50 to 100% | pest or weed control at 50 µg/cm2 [2]: 50 to 100%

CC(C)c1cc(F)ccc1N1C(=O)CS/C1=N\C(=O)NCCCCc1ccc(-c2ncn(-c3ccc(OC(F)(F)F)cc3)n2)cc1 [P155, (Z)-1-(3-(4-fluoro-2-isopropylphenyl)-4-oxothiazolidin-2-ylidene)-3-(4-(4-(1-(4-(trifluoromethoxy)phenyl)-1H-1,2,4-triazol-3-yl)phenyl)butyl)urea]
pest or weed control at 50 µg/cm2 [1]: 50 to 100% | pest or weed control at 50 µg/cm2 [2]: 50 to 100%

COc1ccc(C(C)C)c(N2C(=O)CS/C2=N\C(=O)NCCCCc2ccc(-c3ncn(-c4ccc(OC(F)(F)F)cc4)n3)cc2)c1 [P156, (Z)-1-(3-(2-isopropyl-5-methoxyphenyl)-4-oxothiazolidin-2-ylidene)-3-(4-(4-(1-(4-(trifluoromethoxy)phenyl)-1H-1,2,4-triazol-3-yl)phenyl)butyl)urea]
pest or weed control at 50 µg/cm2 [1]: 50 to 100% | pest or weed control at 50 µg/cm2 [2]: 50 to 100%

CCc1ccccc1N1C(=O)CS/C1=N\C(=O)NCCCCc1cccc(-c2ncn(-c3ccc(OC(F)(F)F)cc3)n2)c1 [P171, (Z)-1-(3-(2-ethylphenyl)-4-oxothiazolidin-2-ylidene)-3-(4-(3-(1-(4-(trifluoromethoxy)phenyl)-1H-1,2,4-triazol-3-yl)phenyl)butyl)urea]
pest or weed control at 50 µg/cm2 [1]: 50 to 100% | pest or weed control at 50 µg/cm2 [2]: 50 to 100%

CC(C)c1ccccc1N1C(=O)CS/C1=N\C(=O)NCCCCc1cccc(-c2ncn(-c3ccc(OC(F)(F)F)cc3)n2)c1 [P172, (Z)-1-(3-(2-isopropylphenyl)-4-oxothiazolidin-2-ylidene)-3-(4-(3-(1-(4-(trifluoromethoxy)phenyl)-1H-1,2,4-triazol-3-yl)phenyl)butyl)urea]
pest or weed control at 50 µg/cm2 [1]: 50 to 100% | pest or weed control at 50 µg/cm2 [2]: 50 to 100%

Cc1ccc(C(C)C)c(N2C(=O)CS/C2=N\C(=O)NCCCCc2cccc(-c3ncn(-c4ccc(OC(F)(F)F)cc4)n3)c2)c1 [P176, (Z)-1-(3-(2-isopropyl-5-methylphenyl)-4-oxothiazolidin-2-ylidene)-3-(4-(3-(1-(4-(trifluoromethoxy)phenyl)-1H-1,2,4-triazol-3-yl)phenyl)butyl)urea]
pest or weed control at 50 µg/cm2 [1]: 50 to 100% | pest or weed control at 50 µg/cm2 [2]: 50 to 100%

CC(C)c1cc(F)ccc1N1C(=O)CS/C1=N\C(=O)NCCCCc1cccc(-c2ncn(-c3ccc(OC(F)(F)F)cc3)n2)c1 [P181, (Z)-1-(3-(4-fluoro-2-isopropylphenyl)-4-oxothiazolidin-2-ylidene)-3-(4-(3-(1-(4-(trifluoromethoxy)phenyl)-1H-1,2,4-triazol-3-yl)phenyl)butyl)urea]
pest or weed control at 50 µg/cm2 [1]: 50 to 100% | pest or weed control at 50 µg/cm2 [2]: 50 to 100%

COc1ccc(C(C)C)c(N2C(=O)CS/C2=N\C(=O)NCCCCc2cccc(-c3ncn(-c4ccc(OC(F)(F)F)cc4)n3)c2)c1 [P182, (Z)-1-(3-(2-isopropyl-5-methoxyphenyl)-4-oxothiazolidin-2-ylidene)-3-(4-(3-(1-(4-(trifluoromethoxy)phenyl)-1H-1,2,4-triazol-3-yl)phenyl)butyl)urea]
pest or weed control at 50 µg/cm2 [1]: 50 to 100% | pest or weed control at 50 µg/cm2 [2]: 50 to 100%

CCC(CNC(=O)/N=C1\SCC(=O)N1c1ccccc1C(C)C)c1ccc(-c2ncn(-c3ccc(OC(F)(F)F)cc3)n2)cc1 (centres unmarked) [P209, (Z)-1-(3-(2-isopropylphenyl)-4-oxothiazolidin-2-ylidene)-3-(2-(4-(1-(4-(trifluoromethoxy)phenyl)-1H-1,2,4-triazol-3-yl)phenyl)butyl)urea]
pest or weed control at 50 µg/cm2 [1]: 50 to 100% | YFM ([3]; Table ABC (P)): A (80-100)

CCC(CNC(=O)/N=C1\SCC(=O)N1c1cc(C)ccc1C(C)C)c1ccc(-c2ncn(-c3ccc(OC(F)(F)F)cc3)n2)cc1 (centres unmarked) [P364, (Z)-1-(3-(2-isopropyl-5-methylphenyl)-4-oxothiazolidin-2-ylidene)-3-(2-(4-(1-(4-(trifluoromethoxy)phenyl)-1H-1,2,4-triazol-3-yl)phenyl)butyl)urea]
pest or weed control at 50 µg/cm2 [1]: 50 to 100% | pest or weed control at 50 µg/cm2 [2]: 50 to 100%

CCC(CNC(=O)/N=C1\SCC(=O)N1c1cc(OC)ccc1C(C)C)c1ccc(-c2ncn(-c3ccc(OC(F)(F)F)cc3)n2)cc1 (centres unmarked) [P683, (Z)-1-(3-(2-isopropyl-5-methoxyphenyl)-4-oxothiazolidin-2-ylidene)-3-(2-(4-(1-(4-(trifluoromethoxy)phenyl)-1H-1,2,4-triazol-3-yl)phenyl)butyl)urea]
pest or weed control at 50 µg/cm2 [1]: 50 to 100% | YFM ([3]; Table ABC (P)): A (80-100)

CCCc1ccc(C)cc1NC(=S)NC(=O)NCCCCc1ccc(-c2ncn(-c3ccc(OC(F)(F)F)cc3)n2)cc1 [PC151, 1-[(5-methyl-2-propyl-phenyl)carbamothioyl]-3-[4-[4-[1-[4-(trifluoromethoxy)phenyl]-1,2,4-triazol-3-yl]phenyl]butyl]urea]
pest or weed control at 50 µg/cm2 [1]: 50 to 100% | pest or weed control at 50 µg/cm2 [2]: 50 to 100%

CCc1cccc(C)c1NC(=S)NC(=O)NCCCCc1ccc(-c2ncn(-c3ccc(OC(F)(F)F)cc3)n2)cc1 [PC153, 1-[(2-ethyl-6-methyl-phenyl)carbamothioyl]-3-[4-[4-[1-[4-(trifluoromethoxy)phenyl]-1,2,4-triazol-3-yl]phenyl]butyl]urea]
YFM ([3]; Table ABC (PC)): B (More than 0-Less than 80)
